From patent US20200190062A1, “HETEROCYCLIC COMPOUND AND PHARMACEUTICAL COMPOSITION COMPRISING SAME” (BEYONDBIO INC., priority 2015, published 2020)
Like-named read-outs stand apart in the source and are kept apart here.

Assays:
CDK1/cyclinB = molecular target: T1, CDK1/cyclinB (Homo sapiens, UniProt P06493); test: Inhibition of CDK enzyme activity (ADP-Glo kinase assay); assay type: biochemical; settings: 10 uM ATP, histone H1 substrate
T1 construct: purchased Merck Millipore
Procedure: (§1) Test compounds were prepared by dissolving the compounds obtained in the above Examples in dimethylsulfoxide (DMSO) at a concentration of 10 mM. The test compounds were diluted to 200 nM, 50 nM, […], 3.13 nM, 0.78 nM, and 0.2 nM and used in an enzyme reaction.
(§2) CDK enzyme reaction was conducted in a buffer containing 50 mM Tris-HCl (pH 7.5), 10 mM MgCl2, 1 mM EGTA, 1 mM EDTA, and 2 mM DTT. CDK1/cyclinB, CDK2/cylcinE, CDK5/p25, and CDK6/cyclinD3 enzymes commercially available from Merck Millipore were used for CDK1, CDK2, CDK5, and CDK6 enzymes, respectively, and CDK4/cyclinD1 enzyme commercially available from Signalchem (US) was used for CDK4. For CDK1, a reaction proceeded by adding 10 nM CDK1/cyclinB and 0.125 mg/ml histone H1 (Merck Millipore) substrate to the buffer and then adding 10 uM ATP thereto. For CDK2, a reaction was proceeded by adding 10 nM CDK2/cyclinE and 0.125 mg/ml histone H1 substrate to the buffer and then adding 10 uM ATP thereto. For CDK5, a reaction was proceeded by adding 10 nM CDK5/p25 and 0.125 mg/ml histone H1 substrate to the buffer and then adding 10 uM ATP thereto. For CDK4, a reaction was proceeded by adding 20 nM CDK4/cyclinD1 and 0.125 mg/ml Rb protein (Merck Millipore) to the buffer and then adding 10 uM ATP thereto. For CDK6, a reaction was proceeded by adding 50 nM CDK6/cyclinD3 and 0.125 mg/ml histone H1 substrate to the buffer and then adding 10 uM ATP thereto. Each enzyme reaction was incubated at 30° C. for 60 min. Then, the amount of ADP produced was measured using Victor X4 instrument (Perkin Elmer) after generating luminescence using ADP-Glo kinase assay kit (Promega, US). An inhibition effect on each enzyme was represented as a percentage of the luminescence value in the presence of the test compounds relative to the luminescence value without the test compounds. IC50 (nM) is the concentration of the compound to inhibit 50% of the enzyme activity.

CDK2/cyclinE = molecular target: T2, CDK2/cyclinE (Homo sapiens, UniProt P24941); test: as above; assay type: biochemical; settings: 10 uM ATP, histone H1 substrate
T2 construct: purchased Merck Millipore
Procedure: as §1, §2

CDK4/cyclinD1 = molecular target: T3, CDK4/cyclinD1 (Homo sapiens, UniProt P11802); test: as above; assay type: biochemical; settings: 10 uM ATP, Rb protein substrate; read-out: IC50 CDK4/cyclinD
T3 construct: purchased Signalchem (US)
Procedure: as §1, §2

CDK6/cyclinD3 = molecular target: T4, CDK6/cyclinD3 (Homo sapiens, UniProt Q00534); test: as above; assay type: biochemical; settings: 10 uM ATP, histone H1 substrate; read-out: IC50 CDK6/cyclinD
T4 construct: purchased Merck Millipore
Procedure: as §1, §2

CDK5/p25 = molecular target: T5, CDK5/p25 (Homo sapiens, UniProt Q00535); test: as above; assay type: biochemical; settings: 10 uM ATP, histone H1 substrate
T5 construct: purchased Merck Millipore
Procedure: as §1, §2

U-87MG = test: Inhibition of cancer cell proliferation (MTT); assay type: cell-based, human
Procedure, shortened: (§3)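 Growth inhibition over 72 h was measured in attached cultures (3000 per well) with 0.08% DMSO as the control. Viable cells were detected with a 2 h MTT step, and the concentration giving 50% inhibition was taken as GI50.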

HCT116 = test: Inhibition of cancer cell proliferation (MTT); assay type: cell-based, human
T98G = test: Inhibition of cancer cell proliferation (MTT); assay type: cell-based, human
Procedure, shortened: as §3

SK-N-SH = test: Inhibition of cancer cell proliferation (MTT); assay type: cell-based, human; settings: Homo sapiens, SK-N-SH, 72 h
Procedure, shortened: as §3

SH-SY5Y = test: Inhibition of cancer cell proliferation (MTT); assay type: cell-based, human; settings: Homo sapiens, SH-SY5Y, 72 h
Procedure, shortened: as §3

[1] = Blood brain barrier permeation; assay type: in vivo, ICR mice; settings: mouse, 10 mg/kg, oral once 10 mg/kg
Procedure: Using 9-week-old male ICR mice, the compounds obtained in the above Examples were orally administered once at a dose of 10 mg/kg or 30 mg/kg, and after 1 hr and 4 hrs, the concentrations of the compounds in the blood and brain of the mice were determined. 3 ICR mice were assigned in each group. Plasma was separated from the blood obtained after sacrificing the mice at each time, the brain of the mice was extracted, and the […] was washed with PBS, followed by pulverizing the brain tissue. The blood was placed in a test tube containing heparin to prevent coagulation and then was centrifuged at 12,000 rpm at 4° C. for 3 min to give a supernatant from which plasma was collected. Brain tissue was weighed, and the brain was pulverized using Dounce's homogenizer after adding 3 times as much volume of PBS as the brain weight. Each of the obtained analytical samples was quantitatively analyzed using a tandem liquid chromatography-mass spectrometer (Tandem LC/MS/MS, API3000 & Agilent 1100 series). Brain permeability of a compound is expressed as a value obtained by dividing the concentration of the compound in the brain by the concentration of the compound in the plasma (B/P ratio), and when the B/P ratio is greater than 1, it means that the concentration in the brain is higher than the one in the blood.

A549 = test: Inhibition of cancer cell proliferation (MTT); assay type: cell-based, human; settings: Homo sapiens, A549, 72 h
Procedure, shortened: as §3

NCI-H23 = test: Inhibition of cancer cell proliferation (MTT); assay type: cell-based, human; settings: Homo sapiens, NCI-H23, 72 h
Procedure, shortened: as §3

Aβ (amyloid β protein) = test: Inhibition of Aβ generation in B103/APP cells (Aβ42 ELISA); assay type: cell-based; settings: Rattus norvegicus, 72 hrs
Procedure: The APP gene was inserted into B103 cells so that APP could be stably expressed and the resulting B103/APP cells were used to confirm inhibition of APP phosphorylation and Aβ generation.
Further, to confirm whether Aβ generation is reduced due to APP phosphorylation inhibition, 5×10^5 B103/APP cells were cultured in a 6-well plate for 16 hrs. Afterwards, the compounds obtained in the above Examples were added at 100 nM, 75 nM, 50 nM, 25 nM, 12.5 nM to a medium containing 500 ug/ml of G418 and 0.5% FBS and incubated for 72 hrs. After 72 hrs, the amount of Aβ was quantified using the medium by Human Aβ42 ELISA kit (Invitrogen).

[2] = system: Human colon carcinoma HCT116 cell line; test: Tumor growth inhibition in an animal model (HCT116 xenograft); assay type: in vivo, Balb/c nude mouse; settings: 100 mpk, oral daily for 12 days
Procedure: Tumor size was measured twice a week using Caliper. […] A vehicle control was 20% propylene glycol (PG) and a positive control was Xeloda at 100 mg/kg.

T1 sequence (P06493 whole entry): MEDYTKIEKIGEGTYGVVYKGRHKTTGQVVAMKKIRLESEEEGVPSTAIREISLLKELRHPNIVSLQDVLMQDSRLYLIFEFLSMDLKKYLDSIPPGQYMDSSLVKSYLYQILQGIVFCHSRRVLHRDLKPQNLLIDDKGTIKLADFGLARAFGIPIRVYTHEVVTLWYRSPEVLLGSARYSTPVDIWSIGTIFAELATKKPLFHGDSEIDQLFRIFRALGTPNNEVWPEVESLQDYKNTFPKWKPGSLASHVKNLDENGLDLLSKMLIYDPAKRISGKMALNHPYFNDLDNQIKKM
T1 sequence (P14635 whole entry partner): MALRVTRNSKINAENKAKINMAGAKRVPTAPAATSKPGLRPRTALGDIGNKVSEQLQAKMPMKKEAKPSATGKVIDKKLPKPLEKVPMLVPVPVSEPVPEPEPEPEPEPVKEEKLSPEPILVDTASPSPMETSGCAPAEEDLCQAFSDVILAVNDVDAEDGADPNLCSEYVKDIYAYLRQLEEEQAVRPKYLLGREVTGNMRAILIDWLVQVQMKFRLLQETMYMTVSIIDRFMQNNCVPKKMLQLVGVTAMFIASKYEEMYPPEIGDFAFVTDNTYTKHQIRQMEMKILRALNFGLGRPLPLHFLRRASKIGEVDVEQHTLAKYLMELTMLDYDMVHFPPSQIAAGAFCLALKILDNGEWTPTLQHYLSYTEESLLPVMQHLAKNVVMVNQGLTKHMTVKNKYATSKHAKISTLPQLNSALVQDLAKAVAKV
T5 sequence (Q00535 whole entry): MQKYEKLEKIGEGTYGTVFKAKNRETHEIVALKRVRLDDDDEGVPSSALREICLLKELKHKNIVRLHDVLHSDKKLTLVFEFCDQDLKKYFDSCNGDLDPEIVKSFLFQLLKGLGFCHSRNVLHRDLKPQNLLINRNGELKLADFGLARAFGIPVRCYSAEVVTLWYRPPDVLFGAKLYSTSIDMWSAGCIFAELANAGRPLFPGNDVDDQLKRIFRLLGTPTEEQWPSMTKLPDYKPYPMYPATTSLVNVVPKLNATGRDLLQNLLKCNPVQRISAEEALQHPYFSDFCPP
T5 sequence (Q15078 99-307 partner limits assumed): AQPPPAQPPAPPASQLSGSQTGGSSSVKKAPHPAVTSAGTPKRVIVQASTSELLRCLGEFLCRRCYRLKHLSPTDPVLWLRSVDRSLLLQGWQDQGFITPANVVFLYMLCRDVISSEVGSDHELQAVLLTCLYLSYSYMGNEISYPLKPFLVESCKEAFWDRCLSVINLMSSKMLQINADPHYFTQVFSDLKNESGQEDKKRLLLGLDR
T3 sequence (P11802 whole entry): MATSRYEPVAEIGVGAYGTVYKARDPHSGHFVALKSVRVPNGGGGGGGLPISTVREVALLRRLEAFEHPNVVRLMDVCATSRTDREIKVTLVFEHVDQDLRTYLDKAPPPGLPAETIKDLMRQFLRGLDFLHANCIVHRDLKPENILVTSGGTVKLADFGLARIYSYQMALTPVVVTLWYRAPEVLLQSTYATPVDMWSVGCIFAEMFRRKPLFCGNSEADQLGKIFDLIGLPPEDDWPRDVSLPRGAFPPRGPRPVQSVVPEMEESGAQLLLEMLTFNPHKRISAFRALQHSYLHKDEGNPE
T3 sequence (P24385 whole entry partner): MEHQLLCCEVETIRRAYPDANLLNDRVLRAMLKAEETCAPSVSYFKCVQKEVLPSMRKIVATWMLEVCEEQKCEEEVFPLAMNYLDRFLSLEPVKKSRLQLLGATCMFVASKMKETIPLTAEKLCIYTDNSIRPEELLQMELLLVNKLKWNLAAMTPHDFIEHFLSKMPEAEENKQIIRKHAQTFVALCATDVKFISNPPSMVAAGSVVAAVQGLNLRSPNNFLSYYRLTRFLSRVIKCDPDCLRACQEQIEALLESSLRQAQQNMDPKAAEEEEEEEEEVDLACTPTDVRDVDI
T4 sequence (Q00534 whole entry): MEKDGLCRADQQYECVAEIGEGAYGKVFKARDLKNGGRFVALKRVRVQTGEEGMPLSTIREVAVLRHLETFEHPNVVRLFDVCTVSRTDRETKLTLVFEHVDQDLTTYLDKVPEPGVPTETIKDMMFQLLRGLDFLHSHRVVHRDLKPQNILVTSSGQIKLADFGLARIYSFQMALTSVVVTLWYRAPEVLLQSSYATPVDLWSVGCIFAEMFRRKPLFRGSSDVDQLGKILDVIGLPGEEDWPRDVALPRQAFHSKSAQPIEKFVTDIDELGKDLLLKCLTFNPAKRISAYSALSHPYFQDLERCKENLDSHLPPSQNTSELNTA
T4 sequence (P30281 whole entry partner): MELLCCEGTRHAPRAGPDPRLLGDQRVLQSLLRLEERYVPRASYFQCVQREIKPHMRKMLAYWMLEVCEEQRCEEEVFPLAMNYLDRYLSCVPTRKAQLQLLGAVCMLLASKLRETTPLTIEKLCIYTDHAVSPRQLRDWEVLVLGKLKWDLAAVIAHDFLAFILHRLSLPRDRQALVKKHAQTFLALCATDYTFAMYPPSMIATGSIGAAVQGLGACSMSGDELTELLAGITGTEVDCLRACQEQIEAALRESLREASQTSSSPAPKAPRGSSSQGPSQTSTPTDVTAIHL

IC50 (CDK1/cyclinB) [nM] | IC50 (CDK2/cyclinE) [nM] | IC50 (CDK4/cyclinD1) [nM] | IC50 (CDK6/cyclinD3) [nM] | IC50 (CDK5/p25) [nM] | GI50 (U-87MG; Homo sapiens, U-87 MG, 72 h) [nM] | GI50 (HCT116; Homo sapiens, HCT-116, 72 h) [nM] | GI50 (SK-N-SH) [nM] | GI50 (SH-SY5Y) [nM] | Structure (SMILES) | other results
26.8 | 10.7 | > 200 | 181 | 6.1 | 5860 | 340 | 780 | 200 | Nc1nccc(-c2nc(-c3cccc(N)c3F)ccc2O)n1 [Example 18, 6-(3-amino-2-fluorophenyl)-2-(2-aminopyrimidin-4-yl)pyridin-3-ol] | 
0.6 | 1 |  |  | 0.3 |  |  |  |  | Nc1nccc(-c2nc(-c3ccnc(N)c3F)ccc2O)n1 [Example 66] | B/P ratio ([1]; 1 hr): 2.44; Concentration in the brain ([1]; 1 hr): 80.5 ng/g; Concentration in the plasma ([1]; 1 hr): 32.9 ng/mL; B/P ratio ([1]; 4 hrs): 2.93; Concentration in the brain ([1]; 4 hrs): 58.9 ng/g; Concentration in the plasma ([1]; 4 hrs): 20.1 ng/mL; GI50 (U-87MG; 72 hrs): 20 nM; GI50 (HCT116; 72 hrs): 10 nM; GI50 (T98G; 72 hrs): 30 nM; GI50 (A549): 30 nM; GI50 (NCI-H23): 30 nM; inhibition at 0.0125 µM (Aβ (amyloid β protein); 12.5 nM): 36.6%; inhibition at 0.025 µM (Aβ (amyloid β protein); 25 nM): 46.6%; inhibition at 0.05 µM (Aβ (amyloid β protein); 50 nM): 75.9%; inhibition at 0.075 µM (Aβ (amyloid β protein); 75 nM): 100%; inhibition at 0.1 µM (Aβ (amyloid β protein); 100 nM): 100%
30.8 | 9.4 | > 200 | 65.3 | 3.3 | 1700 | 610 | 840 | 290 | Nc1nccc(-c2nc(-c3ccc(O)cc3F)ccc2O)n1 [Example 17, 2-(2-aminopyrimidin-4-yl)-6-(2-fluoro-4-hydroxyphenyl)pyridin-3-ol] | 

Continued, molecule first:

Structure (SMILES) | IC50 (CDK1/cyclinB) [nM] | IC50 (CDK2/cyclinE) [nM] | IC50 (CDK4/cyclinD1) [nM] | IC50 (CDK6/cyclinD3) [nM] | IC50 (CDK5/p25) [nM] | GI50 (U-87MG; Homo sapiens, U-87 MG, 72 h) [nM] | GI50 (HCT116; Homo sapiens, HCT-116, 72 h) [nM] | GI50 (SK-N-SH) [nM] | GI50 (SH-SY5Y) [nM] | other results
Nc1nccc(-c2nc(-c3ccc(O)c(F)c3)ccc2O)n1 [Example 19, 2-(2-aminopyrimidin-4-yl)-6-(3-fluoro-4-hydroxyphenyl)pyridin-3-ol] | 19.6 | 14.6 | > 200 | 129 | 6.4 | 440 | 460 | 210 | 120 | GI50 (T98G; Homo sapiens, T98G, 72 h): 2610 nM
Nc1nccc(-c2nc(-c3ccncc3)ccc2O)n1 [Example 12, 6-(2-aminopyrimidin-4-yl)-[2,4′-bipyridin]-5-ol] | 12.6 | 6.6 | > 200 | 50.7 | 5.9 | 790 | 230 | 420 | 240 | concentration at 1 h ([1]; male, ICR, brain, po, 1 hr, read-out: Concentration in the brain): 71.1 ng/g; concentration at 4 h ([1]; male, ICR, brain, po, 4 hrs, read-out: Concentration in the brain): 9.1 ng/g; Kp at 1 h ([1]; male, ICR, brain/plasma, po, 1 hr, read-out: B/P ratio): 4.1; Kp at 4 h ([1]; male, ICR, brain/plasma, po, 4 hrs, read-out: B/P ratio): 3.54; concentration at 1 h ([1]; male, ICR, plasma, po, 1 hr, read-out: Concentration in the plasma): 17.3 ng/mL; concentration at 4 h ([1]; male, ICR, plasma, po, 4 hrs, read-out: Concentration in the plasma): 2.6 ng/mL; GI50 (T98G; Homo sapiens, T98G, 72 h): 1830 nM
CCCCCOC(=O)Nc1nc(=O)n([C@@H]2O[C@H](C)[C@@H](O)[C@H]2O)cc1F [Xeloda, reference compound] |  |  |  |  |  |  |  |  |  | Tumor size [2]: 994.7 ± 405.5 mm^3; tumor growth inhibition ([2]; vs vehicle control): 46%
Nc1nccc(-c2nc(-c3ccc(O)cc3)ccc2O)n1 [Example 9, 2-(2-aminopyrimidin-4-yl)-6-(4-hydroxyphenyl)pyridin-3-ol] | 11.6 | 6.4 | 287 | 44.8 | 2.3 | 630 | 200 | 200 | 90 | 
